Entries after “also recorded” stand apart in the source; their conditions may differ.
Experiments:
[1] = Rooperol metabolites in serum after oral hypoxoside (HPLC); type: in vivo, human; conditions: for presence in serum (HPLC peak): 2 h after oral hypoxoside 1 g, one human volunteer
Procedure: The analytical column (4.6×250 mm) was packed with end-capped C8-bonded silica of 5 μm regular particle size (Whatman, Maidstone, England), while a guard column (2.1×75 mm) was packed with pellicular C18-bonded silica (Whatman). An in-line extraction pre-column (2.1×30 mm) was packed with preparative grade C18-bonded silica, 40 μm particle size (Analytichem International, Harbor City, Calif.).
Operating conditions involved a linear solvent gradient programmed at a flow rate of 1.5 ml/min starting with mobile phase A (0.05M KH2 PO4) to which 10% mobile phase B (acetonitrile-isopropanol, 80:20 v/v) was added after 0.01 min. This mixture was maintained for 1 minute after which a linear gradient of mobile phases A and B was begun, ending at 70% B after 16 minutes. The column temperature was maintained at 50° C.
The in-line extraction pre-column was loaded with sample (dissolved in 50 μl ethanol or in up to 200 μl of mobile phase A in the case of purified compounds; or a 200 μl aliquot of serum or urine from a human subject) and made up to 500 μl with an aqueous solution containing 8M guanidinium chloride and 1M ammonium sulfate. Blood samples were first converted to sera prior to analysis. The extraction column was flushed before and after sample introduction with 500 μl of aqueous 0.5M ammonium sulfate. The solutes trapped on the in-line extraction column were then eluted onto the analytical column by mobile phase after column switching and initiation of the analysis.
The detector was programmed to monitor the eluant at 260 nm and also to record absorption spectra from 200-400 nm.

[2] = Hypoxoside metabolites from urine after oral hypoxoside (HPLC); type: in vivo, human; conditions: urine over 24 h after oral hypoxoside 1 g
Procedure: Example 7 describes the characterization of the rooperol metabolites which were excreted in the urine of the same subject. Urine from the same volunteer as above was collected over 24 hours following administration of the hypoxoside. The collected sample was filtered and purified by passage through a column bed of C18-bonded silica.
The urine from the volunteer in Example 6 was collected over the first 24 hours following administration of hypoxoside and then processed as follows. C18-bonded silica sorbent material (200 g, 40 μm) was pre-treated with methanol and water via a column bed. Filtered urine (5 l) was passed through the sorbent bed, followed by elution in sequence with water (400 ml), aqueous methanol (10% v/v, 400 ml), aqueous methanol (30% v/v, 800 ml) and finally with methanol (400 ml) and water (400 ml). The aqueous methanol fraction (30% v/v, 800 ml) was diluted with water (1600 ml) and again passed through the sorbent bed which was then eluted with water (400 ml) and finally with methanol (400 ml). The final methanol solution was evaporated under vacuum at 50° C. to an aqueous residue which was lyophilized to yield 1 g of a mixture of hypoxoside metabolites and endogenous urine components.
A suitable volume of filtered aqueous solution of this residue (10 mg/ml) was injected onto the in-line pre-column of the analytical HPLC system (Example 5) such that 3 fractions designated A, B, and C having the same retention times as the corresponding peaks observed in serum (Example 6) were collected at the column outlet (see FIG. 4). These fractions were rendered free of mobile phase buffer salts by standard reverse phase sorption technique and lyophilized to dryness.

[3] = system: TNF-α production by lipopolysaccharide-stimulated human peripheral blood mononuclear cells; test: Inhibition of TNF-α production by LPS-stimulated human PBMCs (ELISA); type: cell-based; conditions: for inhibition of TNF-α production, in words: LPS-stimulated human PBMCs, 1-10 μM rooperol
Procedure: (§1) In the study detailed in Example 4, cultured PBMCs enriched in monocytes were stimulated with lipopolysaccharide (20 μg/ml) in the presence and absence of rooperol at concentrations of 1-10 μM. After overnight incubation, the cells were collected and lysed, and the concentrations of TNF-α and IL-1β were measured by ELISA.
(§2) Peripheral blood mononuclear cells (PBMs) from normal human donors were separated on a Ficoll-Paque gradient and enriched in monocytes by adherence. PBMs were cultured in 12-well plates (2×10^6 cells/ml/well) in RPMI 1640 supplemented with 5% fetal calf serum.
(§3) Cultures were stimulated with lipopolysaccharide (LPS, 20 ug/ml), with or without rooperol at concentrations of 1, 2, 5, and 10 μM, and incubated overnight in 5% CO2. The cells were pelleted, resuspended in RPMI medium, and freeze-thawed five times to produce lysates. All samples were stored at -20° C. until cytokine concentrations were determined by commercial ELISA assays.

[4] = system: IL-1β production by lipopolysaccharide-stimulated human peripheral blood mononuclear cells; test: Inhibition of IL-1β production by LPS-stimulated human PBMCs (ELISA); type: cell-based; conditions: for inhibition of IL-1β production, in words: activated human mononuclear cells, 1-10 μM rooperol
Procedure: as §1, §2, §3

[5] = HPLC of fecal specimen after oral hypoxoside; type: in vivo, human; conditions: after oral hypoxoside 1 g
Procedure: In addition, a fecal specimen was also obtained from the subject and, following extraction, was analyzed by HPLC as above (FIG. 5).

[6] = Phase I dosing: hypoxoside and metabolites in serum; type: in vivo; conditions: oral hypoxoside preparation 1.6, 2.4 and 3.2 g, 20 human subjects
Description: In a Phase I dose-ranging and toxicity study, 20 human subjects were given oral doses of a hypoxoside preparation obtained by the methanol extraction procedure described in Example 1. The dosages were 1.6, 2.4, and 3.2 g. Following administration of the hypoxoside preparation, blood samples were collected periodically from the subjects for measurement of hypoxoside and its metabolites. The samples were converted to sera and processed as described in Example 5. The only hypoxoside/rooperol compounds detected were the sulfate and glucuronide metabolites of rooperol noted in Examples 6 and 7.

[7] = Pharmacokinetics of hypoxoside metabolites, multiple-dose study; type: in vivo, human; conditions: 800 mg H. rooperii methanol-extract 3 times daily for 9 days
Procedure: In a random, multiple-dose study, 6 subjects received 800 mg of H. rooperii methanol-extract 3 times daily for 9 days, and blood samples were collected daily for 12 days (with the exception that no samples were collected on day 11).

[8] = Anti-inflammatory activity (general statement)
[9] = Susceptibility to air oxidation; type: physicochemical

Row | SMILES | presence in serum (HPLC peak) [1] | toxicity of metabolites, in words ([1]; oral hypoxoside, humans) | uptake into the bloodstream ([1]; oral hypoxoside, humans) | presence in urine (HPLC peak) [2] | inhibition of TNF-α production, in words [3] | inhibition of IL-1β production, in words [4] | presence in fecal specimen (HPLC peak) [5] | detection in serum [6] | relative abundance of metabolite in serum [7] | inhibition of TNF-α production ([3]; 10 μM rooperol, LPS 20 μg/ml) | IC50 ([3]; Homo sapiens, PBMC, LPS 20 μg/ml, overnight incubation, FIG. 2A, read-out: half-maximal inhibition of TNF-α production) | anti-inflammatory activity [8] | IC50 ([4]; Homo sapiens, PBMC, LPS 20 μg/ml, overnight incubation, FIG. 2B, read-out: half-maximal inhibition of IL-1β production) | susceptibility to air oxidation [9]
1 | OC[C@H]1O[C@@H](Oc2ccc(C#CC/C=C/c3ccc(O[C@@H]4O[C@H](CO)[C@@H](O)[C@H](O)[C@H]4O)c(O)c3)cc2O)[C@H](O)[C@@H](O)[C@@H]1O [hypoxoside] | None of these peaks corresponded to rooperol or hypoxoside | metabolized to non-toxic derivatives | taken up rapidly into the bloodstream | None of the other urinary peaks corresponded to rooperol or hypoxoside | inactive | inactive | No peaks were detectable | Neither hypoxoside nor rooperol could be detected | – | – | – | – | – | –
2 | O=C(O)[C@H]1O[C@@H](Oc2ccc(C#CC/C=C/c3ccc(O[C@@H]4O[C@H](C(=O)O)[C@@H](O)[C@H](O)[C@H]4O)c(O)c3)cc2O)[C@H](O)[C@@H](O)[C@@H]1O [A, rooperol 4,4'-diglucuronide] | appearance of three new peaks | – | – | found in the urine sample | – | – | – | – | minor metabolites | – | – | – | – | –
3 | O=S(=O)(O)Oc1ccc(C#CC/C=C/c2ccc(OS(=O)(=O)O)c(O)c2)cc1O [C, rooperol 4,4'-disulfate] | appearance of three new peaks | – | – | found in the urine sample | – | – | – | – | minor metabolites | – | – | – | – | –
4 | Oc1ccc(C#CC/C=C/c2ccc(O)c(O)c2)cc1O [rooperol] | None of these peaks corresponded to rooperol or hypoxoside | – | – | None of the other urinary peaks corresponded to rooperol or hypoxoside | dose-dependent inhibition; also recorded: potent inhibitor | dose-dependent inhibition; also recorded: potent inhibitor | Only one major peak was observed, with a retention time corresponding to that of rooperol | Neither hypoxoside nor rooperol could be detected | – | nearly complete inhibition | 1000 to 2000 nM | significant anti-inflammatory activity | 1000 to 2000 nM | susceptible to air oxidation

— patent US5569649A, “Anti-inflammatory treatment method” (Phytopharm (NA) N.V., priority 1994, dated 1996)
